Test results taken from article PMC5224920, “Assessing the mechanism and therapeutic potential of modulators of the human Mediator complex-associated protein kinases” (eLife, 2016).

System: 12 single or co-culture in vitro tissue models of primary cells
Assay: Culture/co-culture cell model panel, extracellular biomarkers (DiscoveRx); as to CCL2/MCP-1: reference of the scale not given here; as to CXCL8/IL-8: reference of the scale not given here; as to CXCL9/MIG: reference of the scale not given here; as to IL-1alpha: reference of the scale not given here; as to PBMC Cytotoxicity: reference of the scale not given here; as to SRB: reference of the scale not given here
Type: cell-based, human

Structure (SMILES): Cc1n[nH]c2ncc(C(=O)N3CCC[C@H]3c3ccc(Cl)cc3)cc12 [CMPD4]
- tPA (BENo, 3.70E2 nM): -0.062
- uPA (BENo, 3.70E2 nM): -0.019
- CCL26/Eotaxin-3 (BENo, 4.12E1 nM): 0.012
- CD54/ICAM-1 (BENo, 4.12E1 nM): -0.077
- CD87/uPAR (BENo, 4.12E1 nM): -0.027
- CXCL8/IL-8 (BENo, 4.12E1 nM): 0.020
- CXCL9/MIG (BENo, 4.12E1 nM): -0.004
- CXCL10/IP-10 (BENo, 4.12E1 nM): -0.033
- CXCL11/I-TAC (BENo, 4.12E1 nM): -0.036
- EGFR (BENo, 4.12E1 nM): 0.00426
- HLA-DR (BENo, 4.12E1 nM): -0.016
- IL-1alpha (BENo, 4.12E1 nM): 0.010
- Keratin 8/18 (BENo, 4.12E1 nM): -0.010
- MMP-1 (BENo, 4.12E1 nM): -0.031
- MMP-9 (BENo, 4.12E1 nM): -0.003
- PAI-I (BENo, 4.12E1 nM): -0.067
- SRB (BENo, 4.12E1 nM): 0.00253
- tPA (BENo, 4.12E1 nM): -0.061
- uPA (BENo, 4.12E1 nM): -0.015
- CCL26/Eotaxin-3 (BENo, 4.57E0 nM): 0.029
- CD54/ICAM-1 (BENo, 4.57E0 nM): -0.040
- CD87/uPAR (BENo, 4.57E0 nM): 0.028
- CXCL8/IL-8 (BENo, 4.57E0 nM): 0.039
- CXCL9/MIG (BENo, 4.57E0 nM): 0.050
- CXCL10/IP-10 (BENo, 4.57E0 nM): 0.057
- CXCL11/I-TAC (BENo, 4.57E0 nM): -0.035
- EGFR (BENo, 4.57E0 nM): 0.015
- HLA-DR (BENo, 4.57E0 nM): 0.068
- IL-1alpha (BENo, 4.57E0 nM): -0.00546
- Keratin 8/18 (BENo, 4.57E0 nM): -0.020
- MMP-1 (BENo, 4.57E0 nM): -0.009
- MMP-9 (BENo, 4.57E0 nM): -0.020
- PAI-I (BENo, 4.57E0 nM): -0.00037
- SRB (BENo, 4.57E0 nM): 0.018
- tPA (BENo, 4.57E0 nM): 0.003
- uPA (BENo, 4.57E0 nM): -0.020
- CCL2/MCP-1 (BF4T, 1.00E4 nM): -0.010
- CCL26/Eotaxin-3 (BF4T, 1.00E4 nM): -0.144
- CD54/ICAM-1 (BF4T, 1.00E4 nM): -0.092
- CD90 (BF4T, 1.00E4 nM): -0.00366
- CD106/VCAM-1 (BF4T, 1.00E4 nM): -0.026
- CXCL8/IL-8 (BF4T, 1.00E4 nM): 0.017
- IL-1alpha (BF4T, 1.00E4 nM): -0.039
- Keratin 8/18 (BF4T, 1.00E4 nM): -0.020
- MMP-1 (BF4T, 1.00E4 nM): -0.016
- MMP-3 (BF4T, 1.00E4 nM): 0.014
- MMP-9 (BF4T, 1.00E4 nM): -0.031
- PAI-I (BF4T, 1.00E4 nM): -0.059
- SRB (BF4T, 1.00E4 nM): 0.004
- tPA (BF4T, 1.00E4 nM): -0.022
- uPA (BF4T, 1.00E4 nM): -0.009
- CCL2/MCP-1 (BF4T, 1.11E3 nM): -0.045
- CCL26/Eotaxin-3 (BF4T, 1.11E3 nM): -0.209
- CD54/ICAM-1 (BF4T, 1.11E3 nM): -0.086
- CD90 (BF4T, 1.11E3 nM): -0.00131
- CD106/VCAM-1 (BF4T, 1.11E3 nM): -0.021
- CXCL8/IL-8 (BF4T, 1.11E3 nM): -0.056
- IL-1alpha (BF4T, 1.11E3 nM): -0.038
- Keratin 8/18 (BF4T, 1.11E3 nM): 0.020
- MMP-1 (BF4T, 1.11E3 nM): -0.016
- MMP-3 (BF4T, 1.11E3 nM): -0.0065
- MMP-9 (BF4T, 1.11E3 nM): -0.011
- PAI-I (BF4T, 1.11E3 nM): -0.00269
- SRB (BF4T, 1.11E3 nM): 0.011
- tPA (BF4T, 1.11E3 nM): 0.007
- uPA (BF4T, 1.11E3 nM): -0.016
- CCL2/MCP-1 (BF4T, 1.23E2 nM): -0.067
- CCL26/Eotaxin-3 (BF4T, 1.23E2 nM): -0.191
- CD54/ICAM-1 (BF4T, 1.23E2 nM): -0.058
- CD90 (BF4T, 1.23E2 nM): -0.00126
- CD106/VCAM-1 (BF4T, 1.23E2 nM): -0.012
- CXCL8/IL-8 (BF4T, 1.23E2 nM): -0.021
- IL-1alpha (BF4T, 1.23E2 nM): -0.020
- Keratin 8/18 (BF4T, 1.23E2 nM): -0.022
- MMP-1 (BF4T, 1.23E2 nM): 0.00135
- MMP-3 (BF4T, 1.23E2 nM): -0.007
- MMP-9 (BF4T, 1.23E2 nM): -0.047
- PAI-I (BF4T, 1.23E2 nM): -0.013
- SRB (BF4T, 1.23E2 nM): 0.00469
- tPA (BF4T, 1.23E2 nM): 0.032
- uPA (BF4T, 1.23E2 nM): 0.00319
- CCL2/MCP-1 (BF4T, 1.37E1 nM): 0.00746
- CCL26/Eotaxin-3 (BF4T, 1.37E1 nM): -0.134
- CD54/ICAM-1 (BF4T, 1.37E1 nM): -0.057
- CD90 (BF4T, 1.37E1 nM): -0.011
- CD106/VCAM-1 (BF4T, 1.37E1 nM): -0.028
- CXCL8/IL-8 (BF4T, 1.37E1 nM): -0.024
- IL-1alpha (BF4T, 1.37E1 nM): -0.024
- Keratin 8/18 (BF4T, 1.37E1 nM): -0.00271
- MMP-1 (BF4T, 1.37E1 nM): -0.015
- MMP-3 (BF4T, 1.37E1 nM): 0.049
- MMP-9 (BF4T, 1.37E1 nM): -0.026
- PAI-I (BF4T, 1.37E1 nM): -0.020
- SRB (BF4T, 1.37E1 nM): 0.005
- tPA (BF4T, 1.37E1 nM): 0.049
- uPA (BF4T, 1.37E1 nM): 0.009
- CCL2/MCP-1 (BF4T, 3.33E3 nM): -0.061
- CCL26/Eotaxin-3 (BF4T, 3.33E3 nM): -0.184
- CD54/ICAM-1 (BF4T, 3.33E3 nM): -0.074
- CD90 (BF4T, 3.33E3 nM): 0.011
- CD106/VCAM-1 (BF4T, 3.33E3 nM): 0.002
- CXCL8/IL-8 (BF4T, 3.33E3 nM): -0.042
- IL-1alpha (BF4T, 3.33E3 nM): -0.055
- Keratin 8/18 (BF4T, 3.33E3 nM): -0.022
- MMP-1 (BF4T, 3.33E3 nM): -0.012
- MMP-3 (BF4T, 3.33E3 nM): -0.048
- MMP-9 (BF4T, 3.33E3 nM): -0.00425
- PAI-I (BF4T, 3.33E3 nM): -0.026
- SRB (BF4T, 3.33E3 nM): 0.006
- tPA (BF4T, 3.33E3 nM): 0.015
- uPA (BF4T, 3.33E3 nM): -0.019
- CCL2/MCP-1 (BF4T, 3.70E2 nM): -0.039
- CCL26/Eotaxin-3 (BF4T, 3.70E2 nM): -0.177
- CD54/ICAM-1 (BF4T, 3.70E2 nM): -0.076
- CD90 (BF4T, 3.70E2 nM): -0.00567
- CD106/VCAM-1 (BF4T, 3.70E2 nM): -0.004
- CXCL8/IL-8 (BF4T, 3.70E2 nM): -0.042
- IL-1alpha (BF4T, 3.70E2 nM): -0.090
- Keratin 8/18 (BF4T, 3.70E2 nM): -0.012
- MMP-1 (BF4T, 3.70E2 nM): -0.008
- MMP-3 (BF4T, 3.70E2 nM): 0.015
- MMP-9 (BF4T, 3.70E2 nM): -0.018
- PAI-I (BF4T, 3.70E2 nM): 0.003
- SRB (BF4T, 3.70E2 nM): 3.34e-5
- tPA (BF4T, 3.70E2 nM): 0.027
- uPA (BF4T, 3.70E2 nM): -0.022
- CCL2/MCP-1 (BF4T, 4.12E1 nM): -0.019
- CCL26/Eotaxin-3 (BF4T, 4.12E1 nM): -0.203
- CD54/ICAM-1 (BF4T, 4.12E1 nM): -0.044
- CD90 (BF4T, 4.12E1 nM): 0.0044
- CD106/VCAM-1 (BF4T, 4.12E1 nM): -0.036
- CXCL8/IL-8 (BF4T, 4.12E1 nM): -0.031
- IL-1alpha (BF4T, 4.12E1 nM): -0.038
- Keratin 8/18 (BF4T, 4.12E1 nM): 0.00849
- MMP-1 (BF4T, 4.12E1 nM): -0.002
- MMP-3 (BF4T, 4.12E1 nM): 0.027
- MMP-9 (BF4T, 4.12E1 nM): -0.011
- PAI-I (BF4T, 4.12E1 nM): -0.009
- SRB (BF4T, 4.12E1 nM): 0.000731
- tPA (BF4T, 4.12E1 nM): 0.025
- uPA (BF4T, 4.12E1 nM): -0.00027
- CCL2/MCP-1 (BF4T, 4.57E0 nM): 0.041
- CCL26/Eotaxin-3 (BF4T, 4.57E0 nM): -0.086
- CD54/ICAM-1 (BF4T, 4.57E0 nM): -0.034
- CD90 (BF4T, 4.57E0 nM): -0.000153
- CD106/VCAM-1 (BF4T, 4.57E0 nM): -0.018
- CXCL8/IL-8 (BF4T, 4.57E0 nM): 0.024
- IL-1alpha (BF4T, 4.57E0 nM): -0.020
- Keratin 8/18 (BF4T, 4.57E0 nM): -0.00266
- MMP-1 (BF4T, 4.57E0 nM): 0.000794
- MMP-3 (BF4T, 4.57E0 nM): 0.054
- MMP-9 (BF4T, 4.57E0 nM): -0.023
- PAI-I (BF4T, 4.57E0 nM): 0.019
- SRB (BF4T, 4.57E0 nM): -0.008
- tPA (BF4T, 4.57E0 nM): 0.057
- uPA (BF4T, 4.57E0 nM): -0.00538
- B cell Proliferation (BT, 1.00E4 nM): -0.013
- PBMC Cytotoxicity (BT, 1.00E4 nM): -0.020
- Secreted IgG (BT, 1.00E4 nM): -0.332
- sIL-2 (BT, 1.00E4 nM): 0.00561
- sIL-6 (BT, 1.00E4 nM): -0.027
- sIL-17A (BT, 1.00E4 nM): 0.321
- sIL-17F (BT, 1.00E4 nM): -0.397
